{"source": "paper PMC5342692", "about": "“Hyperosmotic treatment synergistically boost efficiency of cell-permeable peptides” (Oncotarget, 2016)", "key": {"Caski cells [1]": {"system": "Caski cells", "test": "Fluorescent quantitation of FITC-labeled peptide uptake", "type": "cell-based, human", "details": "for intracellular fluorescence intensity of FITC-labeled CPPs with GSM combination: Caski cells co-incubated with glucose, sucrose and manntiol, fluorescence quantitation (Figure 6A)", "procedure": "Before the 10 μM FITC-labeled peptides addition, cells were washed with phosphate-buffered saline (0.1 M PBS, pH 7.4) for 3 times. After internalization for 1 h at 37°C, cells were washed 3 times with PBS, and then observed under fluorescence microscope (Nikon, Japan) using a bandpass filter (detects FITC). In some experiments, cell was pretreated with 5% (v/v %) of DMSO in serum-free medium.\nIntracellular fluorescence intensity of cells can be quantified using quantitative analysis by Multimode Spectrophotometry (Tecan 2000, Mannedorf, Switzerland). Briefly, after peptide incubation procedure shown above, cells were washed 3 times with PBS, lysed by 0.1 M NaOH at room temperature, and then centrifuged at 14000 g for 5 min. […] The fluorescence of cellular uptake is expressed as fluorescence intensity per mg of total cellular protein (protein concentration were determined using Bradford protein assay). All experiments were repeated at least three times and always performed in triplicate."}, "Caski cells [2]": {"system": "Caski cells", "test": "MTT cell viability analysis", "details": "glycerol (30 mM) and glycine (15 mM) together", "method": "MTT assay was used to assess cell viability. Briefly, cells (4 × 10^4 cells) were seeded in one well of 96-well plates and cultivated in an RPMI-1640 medium for 24 h. Cells were washed with PBS and then adding different concentrations of supplements with a serum-free medium, incubated for 2 h at 37°C and washed with PBS twice, then incubated with fresh medium containing serum for 24 h. Then, 20 μl of MTT (5.5 mg/ml) in serum-free media was added directly to each well and incubated for 4 h at 37°C. Removing the supernatant and then adding 100 μl of DMSO, and incubated at 37°C for another 30 min before quantifying the absorbance at 550 nm."}, "HepG2 cells": {"system": "HepG2 cells", "test": "Fluorescent quantitation of FITC-labeled peptide uptake", "details": "HepG2 cells co-incubated with glucose, sucrose and manntiol; fluorescence quantitation (Figure 6B)", "procedure": "(§1) HeLa, Siha, Caski, HepG2, A549 or B16 cells (density: 5 × 10^5 cells per well) were seeded into 24-well-plates (Greiner, Germany) and cultivated in RPMI-1640 medium for 24 h. Before the 10 μM FITC-labeled peptides addition, cells were washed with phosphate-buffered saline (0.1 M PBS, pH 7.4) for 3 times. After internalization for 1 h at 37°C, cells were washed 3 times with PBS, and then observed under fluorescence microscope (Nikon, Japan) using a bandpass filter (detects FITC). In some experiments, cell was pretreated with 5% (v/v %) of DMSO in serum-free medium.\nIntracellular fluorescence intensity of cells can be quantified using quantitative analysis by Multimode Spectrophotometry (Tecan 2000, Mannedorf, Switzerland). Briefly, after peptide incubation procedure shown above, cells were washed 3 times with PBS, lysed by 0.1 M NaOH at room temperature, and then centrifuged at 14000 g for 5 min. The fluorescence intensity of the supernatant was measured at the wavelength of 494/518 nm in a Multimode Microplate Reader. The fluorescence of cellular uptake is expressed as fluorescence intensity per mg of total cellular protein (protein concentration were determined using Bradford protein assay). All experiments were repeated at least three times and always performed in triplicate."}, "A549 and Siha cells": {"system": "A549 and Siha cells", "type": "cell-based, human", "procedure": "as §1"}, "Caski cells [3]": {"system": "Caski cells", "procedure": "as §1"}, "[4]": {"details": "glycerol and glycine combination or separately, fluorescence quantitation (Figure 4D)"}}, "note": "Where two headings read alike, the source gives them in different places. No end group written: not given here.", "data": [{"compound": "OCC(O)CO", "note": "[glycerol]", "values": [{"measurement": "penetration enhancing activity on TAT-FITC", "setting": "Caski cells [1]; [4]", "result": "no significant penetration enhancing activity"}]}, {"compound": "NCC(=O)O", "note": "[glycine]", "values": [{"measurement": "cell viability (MTT) with glycerol and glycine addition during GSM treatment", "setting": "Caski cells [2]; at 24 h (Figure 4A)", "result": "rescue the cell viability"}, {"measurement": "cell viability (MTT) with glycerol and glycine addition during GSM treatment", "setting": "Caski cells [2]; at 48 h (Figure 4B)", "result": "rescue the cell viability"}, {"measurement": "cell viability (MTT) with glycerol and glycine addition during GSM treatment", "setting": "Caski cells [2]; at 72 h (Figure 4C)", "result": "rescue the cell viability"}, {"measurement": "penetration enhancing activity on TAT-FITC", "setting": "Caski cells [1]", "result": "no significant penetration enhancing activity"}]}, {"compound": "KIPLPRFKLKCIFCKKRRKR [hPP10, newly found human-derived CPP labeled with FITC]", "values": [{"measurement": "intracellular fluorescence intensity of FITC-labeled CPPs with GSM combination", "setting": "Caski cells [1]", "result": "facilitate the penetration efficiency"}]}, {"compound": "RKDRRGGEMMKQKRQRE [NLS]", "values": [{"measurement": "intracellular fluorescence intensity of FITC-labeled CPPs with GSM combination", "setting": "Caski cells [1]", "result": "facilitate the penetration efficiency"}, {"measurement": "intracellular fluorescence intensity of FITC-labeled CPPs with GSM combination", "setting": "HepG2 cells", "result": "facilitate the penetration efficiency"}]}, {"compound": "YGRKKRRQRRRK [TAT-FITC]", "values": [{"measurement": "TAT uptake with glucose and manntiol in different cell lines", "setting": "A549 and Siha cells", "result": "enhance the penetration of TAT uptake"}, {"measurement": "TAT penetration efficiency with galactose treatment", "setting": "Caski cells [3]", "result": "partially enhance the penetration efficiency"}, {"measurement": "enhancement of TAT-FITC penetration by chloroquine", "setting": "Caski cells [3]", "result": "limited"}, {"measurement": "TAT penetration efficiency at different temperatures", "setting": "Caski cells [1]; 4 and 37°C, GSM combination (Figure 7B)", "result": "decreased at lower temperatures"}, {"measurement": "TAT penetration with GSM combination, effect of washing method", "setting": "Caski cells [1]; PBS washing vs 0.025% trypsin washing (Supplementary Figure S3)", "result": "no difference between PBS washing and 0.025% trypsin washing method"}, {"measurement": "TAT-FITC uptake with glucose and manntiol combination", "setting": "Caski cells [1]; co-incubated with glucose and manntiol (100 to 300 mM) 1 h, then TAT-FITC 1 h at 37°C, fluorescence quantitation (Figure 3B)", "result": "improved"}, {"measurement": "TAT-FITC uptake with glucose and sucrose combination", "setting": "Caski cells [1]; co-incubated with glucose and sucrose (100 to 300 mM) 1 h, then TAT-FITC 1 h at 37°C, fluorescence quantitation (Figure 3A)", "result": "improved"}, {"measurement": "TAT-FITC uptake with GSM combination", "setting": "Caski cells [1]; co-incubated with glucose, sucrose and manntiol (50 to 300 mM) 1 h, then TAT-FITC 1 h at 37°C, fluorescence quantitation (Figure 3D)", "result": "increasing as the concentration gradient"}, {"measurement": "TAT-FITC uptake with sucrose and manntiol combination", "setting": "Caski cells [1]; co-incubated with sucrose and manntiol (100 to 300 mM) 1 h, then TAT-FITC 1 h at 37°C, fluorescence quantitation (Figure 3C)", "result": "improved"}, {"measurement": "TAT penetration enhancement, dose ranging", "setting": "Caski cells [1]; glucose, sucrose, manntiol from 200 to 600 mM, lysate fluorescence 494/518 nm per mg protein (Figure 2B)", "result": "dependent on the concentration of glucose, sucrose and manntiol"}, {"measurement": "TAT-FITC penetration efficiency in the presence of glycerol and glycine", "setting": "Caski cells [1]; [4]", "result": "not observed"}, {"measurement": "intracellular delivery efficiency of TAT-FITC with NH4Cl", "setting": "Caski cells [1]; lysosomotrophic neutralizing agent NH4Cl, in the presence of GSM combination (Figure 7D)", "result": "significantly decreased"}, {"measurement": "intracellular delivery efficiency of TAT-FITC with NaN3", "setting": "Caski cells [1]; metabolic inhibitor NaN3, in the presence of GSM combination (Figure 7C)", "result": "significantly decreased"}, {"measurement": "TAT penetration efficiency with serum", "setting": "Caski cells [1]; with vs without 10% fetal bovine serum (FBS), GSM combination (Figure 7A)", "result": "remains decreased"}]}]}
